In general, Hill slope refers to a measure of the steepness of the concentration-response curve. As usually defined, the IC50 is the point on the concentration scale where inhibition reaches its midpoint.

For experiment [1], the target named is T1, Protein disulfide isomerase (PDI) from bovine liver (Bos taurus, UniProt P05307).
T1 construct: Protein disulfide isomerase (PDI) from bovine liver (Catalog number P3818); purchased Sigma P3818; host or cells: bovine liver (tissue-derived enzyme)
T1 sequence (P05307 21-510): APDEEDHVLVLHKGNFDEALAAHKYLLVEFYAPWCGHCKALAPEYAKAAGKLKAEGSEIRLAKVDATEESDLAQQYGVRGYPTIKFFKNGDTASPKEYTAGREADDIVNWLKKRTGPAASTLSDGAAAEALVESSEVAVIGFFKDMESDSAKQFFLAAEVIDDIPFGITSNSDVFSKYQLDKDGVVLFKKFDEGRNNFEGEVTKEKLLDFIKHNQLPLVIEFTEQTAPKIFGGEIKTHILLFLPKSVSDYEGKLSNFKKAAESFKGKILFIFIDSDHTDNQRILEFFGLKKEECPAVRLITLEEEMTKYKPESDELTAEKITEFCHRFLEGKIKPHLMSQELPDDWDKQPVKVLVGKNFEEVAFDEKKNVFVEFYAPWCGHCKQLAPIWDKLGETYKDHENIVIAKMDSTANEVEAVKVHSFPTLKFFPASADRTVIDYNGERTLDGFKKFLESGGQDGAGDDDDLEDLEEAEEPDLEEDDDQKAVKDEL
Briefly: High-throughput turbidometric assay of PDI-catalyzed insulin reduction (OD650, H2O2 stop). Format: biochemical. As to the method: Protein disulfide isomerase (PDI) from bovine liver (Catalog number P3818), insulin from bovine pancreas (Catalog number 14011), dithiothreitol (Catalog number D9779), H2O2 (Catalog number H6520) and bacitracin (Catalog number B0125) were purchased from Sigma. A stock solution of 1.6 mM insulin was prepared by dissolving insulin in 0.1 N HCl. Clear polystyrene 384-well assay plates were obtained from Greiner (Catalog number 781101). All reagents used in this study were of analytical grade.
The assay utilized the method according to Bonfils (1998) Eur J Biochem 254:420–427, but was miniaturized in 384-well plates. The assay buffer consisted of 100 mM potassium phosphate and 0.2 mM EDTA, pH 7.0. In a standard room temperature assay, insulin from a 1.6 mM stock solution and PDI from a 5 mg/mL stock were added to final concentrations of 0.16 mM and 33 ug/mL in assay buffer, respectively. Aliquots of the reaction mixture were then added at 30 μL per well to 384-well assay plates. To initiate the reaction, 5 μL of 7 mM dithiothreitol (final concentration 1 mM) was added and quickly mixed. The enzyme reaction was monitored at 650 nm on a SpectraMax Plus plate reader (Molecular Devices, Sunnyvale, Calif.).
For high-throughput screening, a Biomek 2000 liquid handling system (Beckman-Coulter, Palo Alto, Calif.) was used to add 5 μL of 1 M positive control H2O2 to each well in column 24 of the assay plates. Then a Biomek FX384 pipettor (Beckman-Coulter, Palo Alto, Calif.) was programmed to automate the subsequent additions. The pipettor aspirated 29 μL of the enzyme/substrate mixture, applied a 0.5-μL air gap, dipped into DMSO to wash the pipette tip exterior, pipetted 1 μL of 300 μM compound, and then dispensed the entire volume into the assay plate. After the dispense step, the compound was mixed well with the enzyme and substrate. Following a 10 min pre-incubation, 5 μL of 7 mM dithiothreitol was dispensed into the reaction wells. This was followed immediately by a mixing step, in which 20 μL of the mixture was aspirated and dispensed twice in the well. The reaction was allowed to proceed for 30 min and stopped by adding 5 μL of 1 M H2O2 (final concentration 125 mM) to each well. The optical density of each well was measured at 650 nm on the SpectraMax Plus plate reader.
For data analysis, the results are presented as mean±standard deviation. Dose-response curves were fitted by least square regression using Prism (version 3.03). The Z′ factor was calculated according to Zhang et al. (1999) J Biomol Screen 4:67–73.

Another experiment addresses PDI (Homo sapiens, UniProt P07237). To be noted: insulin reduction assay, reported in the literature; cited from earlier work.

“And” between values parts separate entries of the source, which are not always exact repeats. Equal entries are not always repeated. Where a SMILES comes first, the peptide text is derived from it.

PDI, sequence (P07237 18-508, species assumed): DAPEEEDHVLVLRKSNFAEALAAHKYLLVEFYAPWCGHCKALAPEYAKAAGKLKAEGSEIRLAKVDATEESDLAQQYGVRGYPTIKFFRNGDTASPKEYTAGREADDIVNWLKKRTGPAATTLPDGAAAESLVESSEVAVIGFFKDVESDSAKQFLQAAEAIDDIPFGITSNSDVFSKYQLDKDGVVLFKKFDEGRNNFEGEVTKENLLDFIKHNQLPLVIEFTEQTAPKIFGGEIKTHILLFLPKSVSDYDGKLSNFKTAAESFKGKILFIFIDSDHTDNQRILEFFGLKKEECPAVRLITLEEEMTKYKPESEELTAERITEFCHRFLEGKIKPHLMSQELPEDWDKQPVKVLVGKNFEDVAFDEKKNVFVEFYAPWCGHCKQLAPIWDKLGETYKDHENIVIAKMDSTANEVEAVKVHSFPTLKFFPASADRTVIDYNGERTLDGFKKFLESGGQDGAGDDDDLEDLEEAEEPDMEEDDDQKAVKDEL

For `CC[C@H](C)[C@H](N)C1=N[C@H](C(=O)N[C@@H](CC(C)C)C(=O)N[C@H](CCC(=O)O)C(=O)N[C@H](C(=O)N[C@H]2CCCCNC(=O)[C@H](CC(N)=O)NC(=O)[C@@H](CC(=O)O)NC(=O)[C@H](Cc3cnc[nH]3)NC(=O)[C@@H](Cc3ccccc3)NC(=O)[C@H]([C@@H](C)CC)NC(=O)[C@@H](CCCN)NC2=O)[C@@H](C)CC)CS1` [bacitracin] (HELM PEPTIDE1{[CC[C@H](C)[C@H](N)C1=N[C@H](C(=O)[*:2])CS1].L.[dE].I.K.[NCCC[C@@H](N[*:1])C(=O)[*:2]].I.[dF].H.[dD].N}$PEPTIDE1,PEPTIDE1,5:R3-11:R2$$$V2.0), the “behaviour as stop reagent” value in experiment [1] (2 mM bacitracin added 30 min after initiation of the reaction) is recorded as “slow inhibitor”. For the same compound, the “inhibition of the enzyme reaction” value in experiment [1] (bacitracin incubated with the enzyme prior to the addition of dithiothreitol) was “dramatically inhibited the enzyme reaction”. The Hill slope in experiment [1] (dose-response curve, non-linear regression) was 1.2±0.2 and 1.2. Also, the IC50 in experiment [1] (inhibitor incubated with enzyme and insulin 10 minutes prior to initiation with dithiothreitol, dose-response) is 152 ± 25 µM; on PDI, approximately 200 µM.

(Values after US6977142B2, “High-throughput turbidometric assay for screening inhibitors of protein disulfide isomerase activity” (AGY Therapeutics, Inc., priority 2003, dated 2005).)
